Results on nine compounds are retold here after ChEMBL document CHEMBL5393457, “Combined inhibition of amino acid transporters for inhibiting human plasmacytoid dendritic cell activity during autoimmunity” (2022).

The target in test [1] is Large neutral amino acids transporter small subunit 1 (Homo sapiens) (UniProt Q01650). The test can be described thus: Inhibition of human LAT1 at 100 uM relative to control.
The subject of test [2] is Plasmacytoid dendritic cell. The experiment in a line: Inhibition of mTORC1/mTORC2 in CpG-A and IL-3-activated human plasmacytoid dendritic cells at 200 ng/mL assessed as decrease in TNF production. The test is classed as cell-based.
The subject of test [3] is Plasmacytoid dendritic cell. The experiment in a line: Inhibition of mTORC1/mTORC2 in CpG-A and IL-3-activated human plasmacytoid dendritic cells at 200 ng/mL assessed as decrease in IFN-alpha production. The class given is cell-based.
For test [4], the system named is Plasmacytoid dendritic cell. The experiment in a line: Inhibition of mTORC1/mTORC2 in TLR9-activated human plasmacytoid dendritic cells at 1 uM assessed as decrease in CpG-A stimulated SLC7A11 expression. The class given is cell-based.
The subject of test [5] is Plasmacytoid dendritic cell. The experiment in a line: Inhibition of mTORC1/mTORC2 in CpG-A and IL-3-activated human plasmacytoid dendritic cells at 200 ng/mL assessed as decrease in SLC7A5 expression. The test is classed as cell-based.
For test [6], the system named is Plasmacytoid dendritic cell. The test can be described thus: Inhibition of mTORC1/mTORC2 in IL-3 and CpG-A-activated human plasmacytoid dendritic cells at 200 nM assessed as decrease in decrease in MYO1E/IFNA2 expression. The test is classed as cell-based.
Test [7] deals with Plasmacytoid dendritic cell. The test can be described thus: Inhibition of mTORC1/mTORC2 in IL-3 and CpG-A-activated human plasmacytoid dendritic cells at 200 nM assessed as decrease in decrease in ENPP2/IFNA2 expression. The test is classed as cell-based.
Test [8] concerns Plasmacytoid dendritic cell. The experiment in a line: Inhibition of mTORC1/mTORC2 in CpG-A and IL-3-activated human plasmacytoid dendritic cells at 200 ng/mL assessed as decrease in SLC3A2 expression. The test is classed as cell-based.
Test [9] deals with T1, Signal transducer and activator of transcription 5A (Homo sapiens) (UniProt P42229).
T1 sequence (whole entry): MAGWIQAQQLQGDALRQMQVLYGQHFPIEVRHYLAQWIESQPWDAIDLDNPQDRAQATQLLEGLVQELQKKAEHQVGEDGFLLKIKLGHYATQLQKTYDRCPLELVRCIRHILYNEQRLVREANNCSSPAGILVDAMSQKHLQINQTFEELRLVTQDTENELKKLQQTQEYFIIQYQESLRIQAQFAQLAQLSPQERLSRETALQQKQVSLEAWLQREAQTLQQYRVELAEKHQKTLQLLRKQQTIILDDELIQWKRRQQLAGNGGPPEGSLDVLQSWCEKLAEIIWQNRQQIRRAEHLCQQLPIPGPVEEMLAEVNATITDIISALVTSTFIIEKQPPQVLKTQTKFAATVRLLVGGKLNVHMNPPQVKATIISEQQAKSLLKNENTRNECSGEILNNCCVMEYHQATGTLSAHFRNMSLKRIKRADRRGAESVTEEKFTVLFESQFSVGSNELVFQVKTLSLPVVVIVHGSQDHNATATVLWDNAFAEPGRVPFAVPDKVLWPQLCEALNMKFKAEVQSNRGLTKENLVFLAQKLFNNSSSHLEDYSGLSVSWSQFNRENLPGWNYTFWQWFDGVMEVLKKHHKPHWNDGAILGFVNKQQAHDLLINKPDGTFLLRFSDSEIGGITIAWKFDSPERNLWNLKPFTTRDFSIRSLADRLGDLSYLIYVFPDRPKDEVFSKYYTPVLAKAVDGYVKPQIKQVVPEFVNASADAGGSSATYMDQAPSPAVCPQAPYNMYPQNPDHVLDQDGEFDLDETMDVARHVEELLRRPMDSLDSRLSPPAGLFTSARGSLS
The experiment in a line: Inhibition of STAT5 in IL-3 and CpG-A-stimulated human plasmacytoid dendritic cells at 1 to 2 uM assessed as decrease in TNF production in presence of 100 uM sulfasalazine. The class given is cell-based. As to conditions: Plasmacytoid dendritic cell, dose 1-2 µM.

Test [10] addresses T1, Signal transducer and activator of transcription 5A (Homo sapiens). The test can be described thus: Inhibition of STAT5 in IL-3 and CpG-A-stimulated human plasmacytoid dendritic cells at 1 to 2 uM assessed as decrease in IFN-alpha production in presence of 100 uM sulfasalazine. The class given is cell-based. As to conditions: Plasmacytoid dendritic cell, dose 1-2 µM.
Test [11] deals with T2, Cystine/glutamate transporter (Homo sapiens) (UniProt Q9UPY5).
T2 sequence (whole entry): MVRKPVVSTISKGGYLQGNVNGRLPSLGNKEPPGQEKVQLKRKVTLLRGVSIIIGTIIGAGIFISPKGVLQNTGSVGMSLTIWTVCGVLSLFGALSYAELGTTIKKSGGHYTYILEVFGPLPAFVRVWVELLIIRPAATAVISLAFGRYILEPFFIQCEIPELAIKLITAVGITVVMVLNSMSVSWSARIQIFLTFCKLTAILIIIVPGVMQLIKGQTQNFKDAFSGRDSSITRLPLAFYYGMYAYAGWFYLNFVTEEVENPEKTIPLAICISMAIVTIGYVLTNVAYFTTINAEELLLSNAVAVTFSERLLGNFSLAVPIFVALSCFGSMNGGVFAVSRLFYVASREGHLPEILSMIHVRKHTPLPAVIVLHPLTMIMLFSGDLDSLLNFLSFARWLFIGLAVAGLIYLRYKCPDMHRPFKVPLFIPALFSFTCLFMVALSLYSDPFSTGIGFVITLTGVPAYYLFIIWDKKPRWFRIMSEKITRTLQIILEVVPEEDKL
The test can be described thus: Inhibition of XCT in CpG-A-activated human plasmacytoid dendritic cells at 1 uM assessed as decrease in IFN-alpha production. The class given is cell-based. As to conditions: Plasmacytoid dendritic cell.

For test [12], the target named is T2, Cystine/glutamate transporter (Homo sapiens). The test can be described thus: Inhibition of XCT in CpG-A-activated human plasmacytoid dendritic cells at 1 uM assessed as decrease in TNF production. The test is classed as cell-based. The note with it: Plasmacytoid dendritic cell.
Test [13] shares this target. The experiment in a line: Inhibition of XCT in CpG-A-activated human plasmacytoid dendritic cells at 5 uM assessed as decrease in S6 phosphorylation. The class given is cell-based. As to conditions: Plasmacytoid dendritic cell.
For test [14] the target is unchanged. The test can be described thus: Inhibition of XCT in CpG-A-activated human plasmacytoid dendritic cells at 10 uM assessed as decrease in MYO1E expression. The test is classed as cell-based. The note with it: Plasmacytoid dendritic cell.
Test [15] has the same target. The test can be described thus: Inhibition of XCT in CpG-A-activated human plasmacytoid dendritic cells at 10 uM assessed as decrease in ENPP2 expression. As to conditions: Plasmacytoid dendritic cell. The test is classed as cell-based.
Test [16] shares this target. The experiment in a line: Inhibition of XCT in CpG-A-activated human plasmacytoid dendritic cells at 5 uM assessed as decrease in IFN-alpha production. The test is classed as cell-based. The note with it: Plasmacytoid dendritic cell.
Test [17] has the same target. The test can be described thus: Inhibition of XCT in CpG-A-activated human plasmacytoid dendritic cells at 5 uM assessed as decrease in TNF production. The test is classed as cell-based. As to conditions: Plasmacytoid dendritic cell.
Test [18] has the same target. The test can be described thus: Inhibition of XCT in CpG-A-activated human plasmacytoid dendritic cells at 5 uM assessed as decrease in kynurenine uptake. The class given is cell-based. As to conditions: Plasmacytoid dendritic cell.
For test [19] the target is unchanged. The test can be described thus: Inhibition of XCT in IL-3 CpG-A-activated human plasma at 10 uM assessed as decrease in pDC activation.
Test [20] has as its target Glyceraldehyde-3-phosphate dehydrogenase (Homo sapiens) (UniProt P04406). The test can be described thus: Inhibition of GAPDH in CpG-A-stimulated human plasmacytoid dendritic cells at 10 uM assessed as reduction in IFN-alpha production in presence of 1 uM oligomycin. The class given is cell-based. As to conditions: Plasmacytoid dendritic cell.
Test [21] shares this target. The test can be described thus: Inhibition of GAPDH in CpG-A-stimulated human plasmacytoid dendritic cells at 10 uM assessed as reduction in TNF production in presence of 1 uM oligomycin. The test is classed as cell-based. The note with it: Plasmacytoid dendritic cell.
The target is the same in test [22]. The test can be described thus: Inhibition of GAPDH in CpG-A-stimulated human plasmacytoid dendritic cells at 10 uM assessed as reduction in secreted lactate levels. The class given is cell-based. As to conditions: Plasmacytoid dendritic cell.
Test [23] has the same target. The test can be described thus: Inhibition of GAPDH in CpG-A-stimulated human plasmacytoid dendritic cells at 10 uM assessed as reduction in TNF production. The class given is cell-based. The note with it: Plasmacytoid dendritic cell.
For test [24] the target is unchanged. The experiment in a line: Inhibition of GAPDH in CpG-A-stimulated human plasmacytoid dendritic cells at 10 uM assessed as reduction in overall protein synthesis. As to conditions: Plasmacytoid dendritic cell. The class given is cell-based.
Test [25] has the same target. The experiment in a line: Inhibition of GAPDH in CpG-A-stimulated human plasmacytoid dendritic cells at 10 uM assessed as reduction in IFNa-alpha production. The class given is cell-based. As to conditions: Plasmacytoid dendritic cell.
In test [26] the target is T2, Cystine/glutamate transporter (Homo sapiens). The test can be described thus: Inhibition of XCT in CpG-A-activated human plasmacytoid dendritic cells at 25 to 100 uM assessed as decrease in TNF production in presence of 100 uM sulfasalazine. The class given is cell-based. As to conditions: Plasmacytoid dendritic cell, dose 25-100 µM.

The source made the active and inactive calls. No cut-off for these calls is given here.

Large neutral amino acids transporter small subunit 1 (Homo sapiens), sequence (Q01650 whole entry): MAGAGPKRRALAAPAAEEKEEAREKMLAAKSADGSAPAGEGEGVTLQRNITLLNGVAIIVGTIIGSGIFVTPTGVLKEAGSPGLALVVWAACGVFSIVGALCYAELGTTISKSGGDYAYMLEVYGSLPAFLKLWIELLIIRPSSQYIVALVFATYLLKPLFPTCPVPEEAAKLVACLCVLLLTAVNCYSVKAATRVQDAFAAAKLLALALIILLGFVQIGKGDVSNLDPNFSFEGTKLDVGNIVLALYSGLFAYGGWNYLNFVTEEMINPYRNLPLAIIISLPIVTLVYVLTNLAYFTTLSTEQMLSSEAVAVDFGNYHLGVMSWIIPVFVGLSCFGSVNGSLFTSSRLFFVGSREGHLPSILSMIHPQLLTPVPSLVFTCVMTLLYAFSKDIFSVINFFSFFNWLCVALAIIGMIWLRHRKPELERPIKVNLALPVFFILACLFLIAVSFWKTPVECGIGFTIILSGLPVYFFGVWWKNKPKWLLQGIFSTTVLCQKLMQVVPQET
Glyceraldehyde-3-phosphate dehydrogenase (Homo sapiens), sequence (P04406 2-335 limits assumed): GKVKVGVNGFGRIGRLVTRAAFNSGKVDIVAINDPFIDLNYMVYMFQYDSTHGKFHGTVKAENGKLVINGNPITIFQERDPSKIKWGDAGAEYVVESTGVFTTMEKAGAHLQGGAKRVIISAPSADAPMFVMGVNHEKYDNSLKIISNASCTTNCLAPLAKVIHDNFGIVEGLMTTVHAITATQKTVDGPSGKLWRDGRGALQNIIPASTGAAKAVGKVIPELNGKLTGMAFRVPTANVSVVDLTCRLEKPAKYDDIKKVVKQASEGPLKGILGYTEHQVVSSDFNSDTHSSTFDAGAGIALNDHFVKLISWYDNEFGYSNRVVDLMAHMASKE

As to `Fc1ccc(Cl)cc1/N=c1\ssnc1Cl`, the inhibition (commonly the share of the control response that was lost under treatment) in test [1] was greater than 90%.

Turning to `CCC(=O)N1CCN(c2ccc(-n3c(=O)ccc4cnc5ccc(-c6cnc7ccccc7c6)cc5c43)cc2C(F)(F)F)CC1`, the inhibition entry in [2], in test [3], in test [4], in test [5], in [6] and in test [7] was “Active” in each case. Besides, in [8], the inhibition entry is “Active”.

Turning to `O=c1[nH]c2ccccc2n1C1CCN(CCCC(c2ccc(F)cc2)c2ccc(F)cc2)CC1`, the inhibition result in [9] and in test [10] was “Active” each time.

For the compound `CCOc1ccccc1-n1c(C(C)N2CCN(C(=O)COc3ccc(Cl)cc3)CC2)nc2ccccc2c1=O` (stereo not given), the inhibition result in test [11], in test [12], in test [13], in test [14], in test [15] and in [16] was “Active” throughout. The inhibition result in test [17], in test [18] and in test [19] was “Active” throughout.

For `CC(C)[C@H]1CC[C@@]2(CO2)[C@H]2C(=O)OCC(C(=O)O)=C[C@H]12`, the inhibition result in test [20], in test [21], in [22], in test [23], in [24] and in test [25] was “Active” throughout.

Regarding `CCS(=O)(=O)N1CC(CC#N)(n2cc(-c3ncnc4[nH]ccc34)cn2)C1`, in test [26], the inhibition entry is “Active”.

With `CC(C)(C)c1cc(CN(C(=O)CN(Cc2ccc(Cl)cc2)S(=O)(=O)c2c(F)c(F)c(F)c(F)c2F)c2ccc(C(=O)O)cc2)cc(C(C)(C)C)c1`, the inhibition entry in test [9] and in test [10] was “Active” throughout.

Compound `FC(F)(F)Oc1ccc(/N=c2\ssnc2Cl)cc1` displayed an inhibition in test [1] greater than 90%.

In [1], `N#Cc1c(Br)cccc1/N=c1\ssnc1Cl` displayed an inhibition greater than 90%.
